Reference: patent US11912794B2, “Modulation of structured polypeptide specificity” (BicycleRD Limited, priority 2011, dated 2024)
Numbered stars: 1 amine (or outer) side, 2 acyl side, 3 side chain; on linkers, the order of the positions; unused ones are H or OH. Bridge positions count the residues as written; N and C are the ends. Square brackets hold non-standard residues; d marks the D form. Peptide text beside a SMILES is read from it. Phe(4-guanidino) = N=C(N)Nc1ccc(C[C@H](N)C(=O)O)cc1; Pro(4R-Bn) = O=C(O)[C@@H]1C[C@@H](Cc2ccccc2)CN1; 2Nal = N[C@@H](Cc1ccc2ccccc2c1)C(=O)O; TBMB = c1c(C[*:1])cc(C[*:3])cc1C[*:2]; Hyp = O=C(O)[C@@H]1C[C@@H](O)CN1; Tic = O=C(O)[C@@H]1Cc2ccccc2CN1; Cha = N[C@@H](CC1CCCCC1)C(=O)O; Pen = CC(C)(S)[C@H](N)C(=O)O; Aze = O=C(O)[C@@H]1CCN1; Abu = CC[C@H](N)C(=O)O; Aib = CC(C)(N)C(=O)O

How the values were obtained:
[1] = target: T1, human plasma Kallikrein (Homo sapiens, UniProt P03952); assay: Functional enzyme inhibition assay, fluorogenic substrate Z-PheArg-AMC; type: biochemical; conditions: for Ki: Ki (nM) (human kallikrein), Ac-06-34-18(TMB)-NH2 series
T1 construct: purchased Stratech, UK
T1 sequence (P03952 20-638): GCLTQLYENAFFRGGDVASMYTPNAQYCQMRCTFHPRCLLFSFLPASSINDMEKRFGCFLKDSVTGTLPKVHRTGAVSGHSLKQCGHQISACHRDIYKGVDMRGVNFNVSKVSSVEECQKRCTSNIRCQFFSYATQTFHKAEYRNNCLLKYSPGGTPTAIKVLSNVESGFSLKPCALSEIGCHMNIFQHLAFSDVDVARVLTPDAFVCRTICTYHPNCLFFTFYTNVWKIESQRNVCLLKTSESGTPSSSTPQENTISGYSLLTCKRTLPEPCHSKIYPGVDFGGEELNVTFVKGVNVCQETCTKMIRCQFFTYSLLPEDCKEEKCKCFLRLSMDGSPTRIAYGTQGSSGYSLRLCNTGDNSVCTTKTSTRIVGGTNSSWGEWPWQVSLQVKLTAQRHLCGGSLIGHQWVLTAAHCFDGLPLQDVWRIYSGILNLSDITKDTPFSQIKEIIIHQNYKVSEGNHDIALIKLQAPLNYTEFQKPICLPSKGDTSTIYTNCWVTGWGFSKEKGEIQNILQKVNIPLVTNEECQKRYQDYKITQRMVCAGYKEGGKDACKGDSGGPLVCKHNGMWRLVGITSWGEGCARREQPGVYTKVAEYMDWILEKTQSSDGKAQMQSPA
Experimental: Peptides were dissolved as the TFA-salts in their powder form, and stock solutions were usually prepared in water. All solutions were centrifuged and filtered ([…] syringe filters) prior absorption measurement at 280 nm. […] For peptides containing non-natural amino acids with suspected chromophoric properties (i.e. NorHar, 4PhenylPro, 3PaI, 4PaI, Tic, 4GuanPhe, 4,4-BPAI, 3,3-DPA, 1NAI, 2NAI, 4BenzylPro, Ind) concentrations were determined by weighing the powder and dissolving the peptide in a defined quantity of water.

[2] = Plasma stability profiling method 1 (35% plasma, MALDI-TOF, qualitative); type: in vitro ADME, rat; conditions: for Observable in rat plasma, for days: 35% rat plasma, 37 deg C, method 1, comparative estimate; for rat plasma stability: method 1
Experimental: Three methods were employed to assess the stability of bicycles (peptides conjugated to molecular scaffolds) in plasma.
A rapid plasma stability profiling assay was developed that employed mass spectrometric detection (MALDI-TOF, Voyager DE, Applied Biosystems) of the parent mass, until the time when the parent peptide mass was no longer observable. Specifically, 200 uM of peptide was incubated in the presence of 35% rat or human plasma (Sera labs, using citrate as anticoagulant) at 37 deg C., which was supplemented with 1×PBS (derived from a 10×PBS Stock, Sigma). At various time points (i.e. t=0, 3, 24 hrs, henceafter daily up to 10 days), 2 uL of sample was added to 18 uL of 30 mM ammonium bicarbonate in a 1:1 mixture of acetonitrile:H2O. Samples were frozen at −80 deg C. until the time of analysis. For mass spectrometric analysis that determines the approximate detection window of the peptide, the acetonitrile:H2O-diluted sample of a given time point was spotted directly (0.7 uL) onto the MALDI plate. Matrix (alpha-cyanocinnamic acid, Sigma, prepared as a saturated solution in 1:1 acetonitrile:water containing 0.1% trifluoroacetic acid) was layered over the sample (1 uL). At a similar laser intensity setting on the MALDI TOF, the time could then be determined until parent peptide was no longer detectable. It should be noted that this is a qualitative assay serves to detect relative changes in plasma stability.

Structure (SMILES)	Ki [1] [nM]	Observable in rat plasma, for days [2] [days]	further results
CC(=O)N[C@H]1CSCc2cc3cc(c2)CSC[C@H](NC(=O)[C@H](CCCNC(=N)N)NC(=O)C(C)(C)NC(=O)[C@@H]2CCCN2C(=O)[C@H](Cc2c[nH]c4ccccc24)NC(=O)[C@H](CO)NC1=O)C(=O)N[C@@H](CC(C)C)C(=O)N[C@@H](Cc1c[nH]cn1)C(=O)N[C@@H](CCC(N)=O)C(=O)N[C@@H](CC(=O)O)C(=O)N[C@@H](CC(C)C)C(=O)N[C@H](C(N)=O)CSC3 [Ac-(06-34-18) Aib4] (Ac-CSWP[Aib]RCLHQDLC-NH2; linker 1-7-13 via TBMB)	289	7	–
CC(=O)N[C@H]1CSCc2cc3cc(c2)CSC[C@H](NC(=O)[C@H](CCCNC(=N)N)N(C)C(=O)[C@H](C)NC(=O)[C@@H]2CCCN2C(=O)[C@H](Cc2c[nH]c4ccccc24)NC(=O)[C@H](CO)NC1=O)C(=O)N[C@@H](CC(C)C)C(=O)N[C@@H](Cc1c[nH]cn1)C(=O)N[C@@H](CCC(N)=O)C(=O)N[C@@H](CC(=O)O)C(=O)N[C@@H](CC(C)C)C(=O)N[C@H](C(N)=O)CSC3 [Ac-(06-34-18) NMeArg5]	–	–	loss in potency / reduction in affinity compared to wildtype ([1]; vs Ac-06-34-18(TMB)-NH2): 20 fold; rat plasma stability [2]: exceeds the assay time
CC(=O)N[C@H]1CSCc2cc3cc(c2)CSC[C@H](NC(=O)[C@H](CCCNC(=N)N)NC(=O)[C@H](C)NC(=O)[C@@H]2CCCN2C(=O)[C@H](Cc2ccc4ccccc4c2)NC(=O)[C@H](CO)NC1=O)C(=O)N[C@@H](CC(C)C)C(=O)N[C@@H](Cc1c[nH]cn1)C(=O)N[C@@H](CCC(N)=O)C(=O)N[C@@H](CC(=O)O)C(=O)N[C@@H](CC(C)C)C(=O)N[C@H](C(N)=O)CSC3 [Ac-(06-34-18) 2NAL2] (Ac-CS[2Nal]PARCLHQDLC-NH2; linker 1-7-13 via TBMB)	0.5	2	–
CC(=O)N[C@H]1CSCc2cc3cc(c2)CSC[C@H](NC(=O)[C@H](CCCNC(=N)N)NC(=O)[C@H](C)NC(=O)[C@@H]2C[C@@H](O)CN2C(=O)[C@H](Cc2c[nH]c4ccccc24)NC(=O)[C@H](CO)NC1=O)C(=O)N[C@@H](CC(C)C)C(=O)N[C@@H](Cc1c[nH]cn1)C(=O)N[C@@H](CCC(N)=O)C(=O)N[C@@H](CC(=O)O)C(=O)N[C@@H](CC(C)C)C(=O)N[C@H](C(N)=O)CSC3 [Ac-(06-34-18) HyP3] (Ac-CSW[Hyp]ARCLHQDLC-NH2; linker 1-7-13 via TBMB)	0.41	2	–
CC(=O)N[C@H]1CSCc2cc3cc(c2)CSC[C@H](NC(=O)[C@H](CCCNC(=N)N)NC(=O)[C@H](C)NC(=O)[C@@H]2Cc4ccccc4CN2C(=O)[C@H](Cc2c[nH]c4ccccc24)NC(=O)[C@H](CO)NC1=O)C(=O)N[C@@H](CC(C)C)C(=O)N[C@@H](Cc1c[nH]cn1)C(=O)N[C@@H](CCC(N)=O)C(=O)N[C@@H](CC(=O)O)C(=O)N[C@@H](CC(C)C)C(=O)N[C@H](C(N)=O)CSC3 [Ac-(06-34-18) Tic3] (Ac-CSW[Tic]ARCLHQDLC-NH2; linker 1-7-13 via TBMB)	13.5	2	–
CC(=O)N[C@H]1CSCc2cc3cc(c2)CSC[C@H](NC(=O)[C@H](CCCNC(=N)N)NC(=O)[C@H](C)NC(=O)[C@@H]2CCN2C(=O)[C@H](Cc2c[nH]c4ccccc24)NC(=O)[C@H](CO)NC1=O)C(=O)N[C@@H](CC(C)C)C(=O)N[C@@H](Cc1c[nH]cn1)C(=O)N[C@@H](CCC(N)=O)C(=O)N[C@@H](CC(=O)O)C(=O)N[C@@H](CC(C)C)C(=O)N[C@H](C(N)=O)CSC3 [Ac-(06-34-18) Aze3] (Ac-CSW[Aze]ARCLHQDLC-NH2; linker 1-7-13 via TBMB)	–	2	affinity surpassing that of wildtype by a factor ([1]; vs Ac-06-34-18(TMB)-NH2): 3
CC(=O)N[C@H]1CSCc2cc3cc(c2)CSC[C@H](NC(=O)[C@H](CCCNC(=N)N)NC(=O)[C@H](Cc2ccc(O)cc2)NC(=O)[C@@H]2CCCN2C(=O)[C@H](Cc2c[nH]c4ccccc24)NC(=O)[C@H](CO)NC1=O)C(=O)N[C@@H](CC(C)C)C(=O)N[C@@H](Cc1c[nH]cn1)C(=O)N[C@@H](CCC(N)=O)C(=O)N[C@@H](CC(=O)O)C(=O)N[C@@H](CC(C)C)C(=O)N[C@H](C(N)=O)CSC3 [Ac-(06-34-18) WPYR] (Ac-CSWPYRCLHQDLC-NH2; linker 1-7-13 via TBMB)	0.41	2	–
CC(=O)N[C@H]1CSCc2cc3cc(c2)CSC[C@H](NC(=O)[C@H](CCCNC(=N)N)NC(=O)[C@H](C)NC(=O)[C@@H]2C[C@@H](Cc4ccccc4)CN2C(=O)[C@H](Cc2c[nH]c4ccccc24)NC(=O)[C@H](CO)NC1=O)C(=O)N[C@@H](CC(C)C)C(=O)N[C@@H](Cc1c[nH]cn1)C(=O)N[C@@H](CCC(N)=O)C(=O)N[C@@H](CC(=O)O)C(=O)N[C@@H](CC(C)C)C(=O)N[C@H](C(N)=O)CSC3 [Ac-(06-34-18) 4Benzyl Pro3] (Ac-CSW[Pro(4R-Bn)]ARCLHQDLC-NH2; linker 1-7-13 via TBMB)	191	2	–
CC[C@@H]1NC(=O)[C@@H]2CCCN2C(=O)[C@H](Cc2c[nH]c3ccccc23)NC(=O)[C@H](CO)NC(=O)[C@@H](NC(C)=O)CSCc2cc3cc(c2)CSC[C@H](NC(=O)[C@H](CCCNC(=N)N)NC1=O)C(=O)N[C@@H](CC(C)C)C(=O)N[C@@H](Cc1c[nH]cn1)C(=O)N[C@@H](CCC(N)=O)C(=O)N[C@@H](CC(=O)O)C(=O)N[C@@H](CC(C)C)C(=O)N[C@H](C(N)=O)CSC3 [Ac-(06-34-18) Aba4] (Ac-CSWP[Abu]RCLHQDLC-NH2; linker 1-7-13 via TBMB)	0.07	2	–
CC(=O)N[C@H]1CSCc2cc3cc(c2)CSC(C)(C)[C@H](NC(=O)[C@H](CCCNC(=N)N)NC(=O)[C@H](C)NC(=O)[C@@H]2CCCN2C(=O)[C@H](Cc2c[nH]c4ccccc24)NC(=O)[C@H](CO)NC1=O)C(=O)N[C@@H](CC(C)C)C(=O)N[C@@H](Cc1c[nH]cn1)C(=O)N[C@@H](CCC(N)=O)C(=O)N[C@@H](CC(=O)O)C(=O)N[C@@H](CC(C)C)C(=O)N[C@H](C(N)=O)CSC3 [Ac-(06-34-18) Cys2ToPen2] (Ac-CSWPAR[Pen]LHQDLC-NH2; linker 1-7-13 via TBMB)	–	5	potency against human plasma Kallikrein compared to parent [1]: potency dropped significantly; rat plasma stability [2]: slightly enhanced
CC(=O)N[C@H]1CSCc2cc3cc(c2)CSC[C@H](NC(=O)[C@H](CCCNC(=N)N)NC(=O)[C@H](C)NC(=O)[C@@H]2CCCN2C(=O)[C@H](Cc2ccccc2)NC(=O)[C@H](CO)NC1=O)C(=O)N[C@@H](CC(C)C)C(=O)N[C@@H](Cc1c[nH]cn1)C(=O)N[C@@H](CCC(N)=O)C(=O)N[C@@H](CC(=O)O)C(=O)N[C@@H](CC(C)C)C(=O)N[C@H](C(N)=O)CSC3 [Ac-(06-34-18) FPAR] (Ac-CSFPARCLHQDLC-NH2; linker 1-7-13 via TBMB)	–	2	loss in potency / reduction in affinity compared to wildtype ([1]; vs Ac-06-34-18(TMB)-NH2): 40 fold
CC(=O)N[C@H]1CSCc2cc3cc(c2)CSC[C@H](NC(=O)[C@H](CCCNC(=N)N)NC(=O)[C@H](C)NC(=O)C(C)(C)NC(=O)[C@H](Cc2c[nH]c4ccccc24)NC(=O)[C@H](CO)NC1=O)C(=O)N[C@@H](CC(C)C)C(=O)N[C@@H](Cc1c[nH]cn1)C(=O)N[C@@H](CCC(N)=O)C(=O)N[C@@H](CC(=O)O)C(=O)N[C@@H](CC(C)C)C(=O)N[C@H](C(N)=O)CSC3 [Ac-(06-34-18) Aib3] (Ac-CSW[Aib]ARCLHQDLC-NH2; linker 1-7-13 via TBMB)	1.2	2	–
CC(=O)N[C@H]1CSCc2cc3cc(c2)CSC[C@H](NC(=O)[C@H](CCCNC(=N)N)NC(=O)[C@H](CC2CCCCC2)NC(=O)[C@@H]2CCCN2C(=O)[C@H](Cc2ccccc2)NC(=O)[C@H](CO)NC1=O)C(=O)N[C@@H](CC(C)C)C(=O)N[C@@H](Cc1c[nH]cn1)C(=O)N[C@@H](CCC(N)=O)C(=O)N[C@@H](CC(=O)O)C(=O)N[C@@H](CC(C)C)C(=O)N[C@H](C(N)=O)CSC3 [Ac-(06-34-18) Phe2 Cha4] (Ac-CSFP[Cha]RCLHQDLC-NH2; linker 1-7-13 via TBMB)	0.91	–	–
CC(=O)N[C@H]1CSCc2cc3cc(c2)CSC[C@H](NC(=O)[C@H](Cc2ccc(NC(=N)N)cc2)NC(=O)[C@H](C)NC(=O)[C@@H]2CCN2C(=O)[C@H](Cc2c[nH]c4ccccc24)NC(=O)[C@H](CO)NC1=O)C(=O)N[C@@H](CC(C)C)C(=O)N[C@@H](Cc1c[nH]cn1)C(=O)N[C@@H](CCC(N)=O)C(=O)N[C@@H](CC(=O)O)C(=O)N[C@@H](CC(C)C)C(=O)N[C@H](C(N)=O)CSC3 [Ac-(06-34-18) Aze3 4GuanPhe5] (Ac-CSW[Aze]A[Phe(4-guanidino)]CLHQDLC-NH2; linker 1-7-13 via TBMB)	0.17	>10	–
